Reference: ChEMBL document CHEMBL1157785, “Identification of 4,5-dihydro-1H-pyrazolo[4,3-h]quinazoline derivatives as a new class of orally and selective Polo-like kinase 1 inhibitors” (J Med Chem, 2010)
In brackets after ≈: the same amount, converted by molar mass.

Columns and labels:
[1] = Solubility at pH 7 after 24 hrs by LC-MS/MS analysis; format: physicochemical; settings: buffer
[2] = Apparent permeability across human Caco-2 cell membrane at 10 uM after 120 mins by LC-MS/MS analysis; format: ADME, cell-based

| SMILES | solubility at 24 h [1] [µM] | Papp at 2 h, 10 µM [2] [×10⁻⁶ cm/s] |
| --- | --- | --- |
| CNc1ccccc1Nc1ncc2c(n1)-c1c(c(C(N)=O)nn1C)CC2 | 23 (≈ 8.04 µg/mL) |  |
| Cn1nc(C(N)=O)c2c1-c1nc(Nc3ccccc3Nc3ccccc3)ncc1CC2 | < 1 |  |
| Cn1nc(C(N)=O)c2c1-c1nc(Nc3ccccc3Cc3ccccc3)ncc1CC2 | < 1 |  |
| CC(=O)c1ccc(N2CCN(C)CC2)cc1Nc1ncc2c(n1)-c1c(c(C(N)=O)nn1C)CC2 | 18 (≈ 8.29 µg/mL) |  |
| Cn1nc(C(N)=O)c2c1-c1nc(Nc3ccccc3N)ncc1CC2 | 190 (≈ 63.7 µg/mL) |  |
| CC(=O)Nc1ccccc1Nc1ncc2c(n1)-c1c(c(C(N)=O)nn1C)CC2 | 16 (≈ 6.04 µg/mL) |  |
| Cn1nc(C(=O)O)c2c1-c1nc(Nc3ccccc3)ncc1CC2 |  | 2.7 |
| CC(C)c1ccccc1Nc1ncc2c(n1)-c1c(c(C(N)=O)nn1C)CC2 | 2 (≈ 0.725 µg/mL) |  |
| Cn1nc(C(N)=O)c2c1-c1nc(Nc3ccccc3C(N)=O)ncc1CC2 | < 1 |  |
| Cn1nc(C(N)=O)c2c1-c1nc(Nc3ccccc3-c3ccccc3)ncc1CC2 | < 1 |  |
| Cn1nc(C(N)=O)c2c1-c1nc(Nc3ccccc3Sc3ccccc3)ncc1CC2 | < 1 |  |
| CSc1ccccc1Nc1ncc2c(n1)-c1c(c(C(N)=O)nn1C)CC2 | 2 (≈ 0.733 µg/mL) |  |
| Cn1nc(C(N)=O)c2c1-c1nc(Nc3ccccc3Oc3ccccc3)ncc1CC2 | < 1 |  |
| CC(=O)c1cc(N2CCN(C)CC2)ccc1Nc1ncc2c(n1)-c1c(c(C(N)=O)nn1C)CC2 | 83 (≈ 38.2 µg/mL) |  |
| CC(=O)c1c(Nc2ncc3c(n2)-c2c(c(C(N)=O)nn2C)CC3)cccc1N1CCN(C)CC1 | 170 (≈ 78.3 µg/mL) |  |
| COC(=O)c1ccccc1Nc1ncc2c(n1)-c1c(c(C(N)=O)nn1C)CC2 | 2 (≈ 0.757 µg/mL) |  |
| Cn1nc(C(N)=O)c2c1-c1nc(Nc3ccccc3C(=O)c3ccccc3)ncc1CC2 | < 1 |  |
| COc1ccccc1Nc1ncc2c(n1)-c1c(c(C(N)=O)nn1C)CC2 | 3 (≈ 1.05 µg/mL) |  |
| Cn1nc(C(N)=O)c2c1-c1nc(Nc3ccccc3C(F)(F)F)ncc1CC2 | 4 (≈ 1.55 µg/mL) |  |
| Cc1ccccc1Nc1ncc2c(n1)-c1c(c(C(N)=O)nn1C)CC2 | 3 (≈ 1 µg/mL) |  |
| Cn1nc(C(N)=O)c2c1-c1nc(Nc3ccccc3S(N)(=O)=O)ncc1CC2 | 4 (≈ 1.6 µg/mL) |  |
| Cn1nc(C(N)=O)c2c1-c1nc(Nc3ccccc3)ncc1CC2 | 3 (≈ 0.961 µg/mL) | 58.3 |
| COc1cc(N2CCN(C)CC2)ccc1Nc1ncc2c(n1)-c1c(c(C(N)=O)nn1C)CC2 | > 225 |  |
| CC(=O)c1ccccc1Nc1ncc2c(n1)-c1c(c(C(N)=O)nn1C)CC2 | 2 (≈ 0.725 µg/mL) |  |
| Cn1nc(C(N)=O)c2c1-c1nc(Nc3ccccc3F)ncc1CC2 | 3 (≈ 1.02 µg/mL) |  |
